# Measured values from patent publication US9079859B2, “Synthetic lethal targeting of glucose transport” (AUCKLAND UNISERVICES LIMITED, priority 2011, dated 2015).
# Columns and labels:
# Assay type in all cases: cell-based
# cells with wild-type VHL = assay: Glycolysis (lactate, extracellular acidification), wild-type VHL cells; conditions: lactate and extracellular acidification
# Experimental: HIF is important to adapting to low oxygen conditions through the transcription of many genes, including those involved in glucose metabolism. It was hypothesized that STF-31 might inhibit metabolic pathways, leading to necrotic cell death. To examine whether this compound alters glycolysis, intracellular lactate, which is rapidly converted from the glycolysis end product pyruvate, and extracellular acidification were measured. Baseline levels of glycolysis were lower in wild-type VHL cells compared to VHL-deficient cells (FIGS. 2, A and B), likely a result of the constitutive expression of HIF and subsequent overexpression of glucose transporters and glycolytic enzymes in the latter.
# RCC4 and RCC4/VHL cells = assay: Apoptosis (nuclear condensation, annexin V / propidium iodide); conditions: VHL-deficient and wild-type VHL RCCs, DAPI
# VHL-deficient cells = assay: ATP levels (bioluminescence assay)
# Experimental: Cell Culture and Reagents. All cells were grown in DMEM+10% FCS. ACHN and ACHN shVHL were a kind gift from George V. Thomas (UCLA). HIF overexpressing clones were described previously (Sutphin et al., Cancer Res, 67:5896-5905 (2007)). Transfection of RNA oligos were performed with DnarmaFECT Reagent 1 (Dharmcon), according to manufacturer's directions. ON-TARGETplus SMART pools against HIF-1 R/ARNT were purchased from Dharmacon. Inducible shRNAmir to GLUT1 was purchased from Open Biosystems. GLUT1 was detected with anti-GLUT1 antibody from NeoMarkers/LabVision/Fisher. For immunofluorescent studies, GLUT1, GLUT2, and GLUT3 antibodies were purchased from R&D. Pyruvate/lactate levels and hexokinase activity were both measured by fluorometric assay (BioVision and Sigma-Aldrich, respectively). ATP levels were measured by bioluminescence assay (ATP Determination Kit from Molecular Probes/Invitrogen). In vitro kinase activities were performed by Millipore Kinase Profiler.
# ACHN = assay: RCC panel sensitivity (Table 2); conditions: VHL wild-type
# SN12C shVHL = assay: RCC panel sensitivity (Table 2); conditions: VHL silenced
# 786-0 = assay: RCC panel sensitivity (Table 2); conditions: 786-0, VHL mutant
# LC3 = assay: Autophagy markers (vacuoles, LC3 processing); conditions: RCC4 and RCC4/VHL; 1.25, 2.5 and 5 μM
# [1] = system: RCC4/VHL cell clones overexpressing HIF; assay: Sensitivity of RCC4/VHL clones overexpressing HIF; conditions: non-degradable, constitutively active HIF; two clones
# Experimental: The hypoxia-inducible factor (HIF) family of transcription factors are VHL targets and we next examined whether toxicity was HIF-dependent (Iliopoulos et al., Nat Med., 1: 822-826 (1995); Maxwell et al., Nature, 399:271-275 (1999); Zimmer et al., Mol Cancer Res., 2:89-95 (2004)). A non-degradable, constitutively active HIF was overexpressed in RCC4/VHL cells. Two individual HIF-overexpressing clones were tested for their sensitivity to STF-31 (Sutphin et al., Cancer Res 67:5896-5905 (2007)). […] Furthermore, the sensitivity of RCCs that lack functional VHL to STF-31 is directly linked to the aberrant up-regulation of HIF.
# RCC4/VHL = assay: RCC panel sensitivity (Table 2); conditions: VHL wild-type
# ACHN shVHL = assay: RCC panel sensitivity (Table 2); conditions: VHL silenced
# hexokinase [2] = assay: Hexokinase activity in whole-cell lysates, RCC4; conditions: only after three days of treatment
# Description: (§1) We then examined whether this decrease in glycolysis in response to STF-31 was due to a decrease in glucose uptake or whether STF-31 inhibited a particular glycolytic enzyme. To test this, we measured glucose uptake using 2-deoxy-D-[^3H] glucose, a non-hydrolyzable, radioactive glucose analog. STF-31 impaired glucose uptake in RCC4 and 786-O cells but not in the matched isogenic cells expressing wild-type VHL (FIGS. 2B, 6A, and 6C). RCC4/VHL cells had lower baseline levels of glucose uptake compared to RCC4 cells and were unaffected by treatment with STF-31. […] Because the phosphorylation of glucose to glucose-6-phosphate is important for preventing glucose efflux from the cell, we asked whether STF-31 might function by inhibiting the phosphorylation of glucose by hexokinase. […]
# (§2) Cell Culture and Reagents. […] GLUT1 was detected with anti-GLUT1 antibody from NeoMarkers/LabVision/Fisher. For immunofluorescent studies, GLUT1, GLUT2, and GLUT3 antibodies were purchased from R&D. Pyruvate/lactate levels and hexokinase activity were both measured by fluorometric assay (BioVision and Sigma-Aldrich, respectively). ATP levels were measured by bioluminescence assay (ATP Determination Kit from Molecular Probes/Invitrogen). […]
# RCC4 cells = assay: XTT cell viability assay, RCC4; conditions: four days of treatment; compared to RCC4/VHL; concentration-dependent
# Experimental: Cell Viability Assays. For 2,3-bis[2-methoxy-4-nitro-5-sulfophenyl]-2H-tetrazolium-5-carboxanilide (XTT) assays, five thousand cells were plated in 96-well plates. The next day, vehicle (DMSO) or drug was added by serial dilution. Four days later, media were aspirated, XTT solution (0.3 mg/ml of XTT (Sigma), […] N-methyl dibenxopyrazine methyl sulfate (Sigma) in phenol red-free media) was added, and the plates were incubated at 37° C. for 1-2 hours. Metabolism of XTT was quantified by measuring the absorbance at 450 nm. IC50s were calculated using linear interpolation. For clonogenic survival assays, three hundred cells were plated per 60 mm tissue culture dish. The cells were allowed to attach overnight and then treated with vehicle or drug for 14 days. Colonies were fixed and stained with crystal violet (0.1% crystal violet in 95% ethanol). All conditions were measured in triplicate and each experiment was done in duplicate or triplicate. To determine necrosis, cells were treated with drug for a given time point. Media and cells were collected, centrifugated, and resuspended in 0.4% trypan blue (Invitrogen). Live and dead cells were counted on a hematocytometer.
# p53 = assay: DNA damage response (p53, phospho-p53 Western blot); conditions: RCC4 and RCC4/VHL; 1.25, 2.5 and 5 μM
# hexokinase [3] = assay: Hexokinase activity in whole-cell lysates, RCC4/VHL
# Description: as §1, §2
smiles,measurement,setting,value
CC(C)(C)c1ccc(S(=O)(=O)NCc2ccc(C(=O)Nc3cccnc3)cc2)cc1 [STF-31],glycolysis in cells with wild-type VHL,cells with wild-type VHL,did not alter
same,nuclear condensation,RCC4 and RCC4/VHL cells,no nuclear condensation
same,inhibition of ATP production versus concentration,VHL-deficient cells,dose-dependent
same,decrease in ATP levels,VHL-deficient cells; VHL-deficient cells,75%
same,3-series sensitivity (sensitivity to STF-31),ACHN,No
same,3-series sensitivity (sensitivity to STF-31),SN12C shVHL,Yes
same,3-series sensitivity (sensitivity to STF-31),786-0,Yes
same,"morphologic or biochemical features of autophagy (vacuoles, LC3 processing)",LC3,did not induce
same,effect of ectopic HIF expression in wild-type VHL cells on response to STF-31,[1],sensitized
same,3-series sensitivity (sensitivity to STF-31),RCC4/VHL,No
same,3-series sensitivity (sensitivity to STF-31),ACHN shVHL,Yes
same,hexokinase activity in RCC4 cells,hexokinase [2],inhibited
same,number of RCC4 cells (cell viability by XTT),RCC4 cells,significant decrease
same,total p53 or phospho-p53 levels,p53,did not increase
same,hexokinase activity of RCC4/VHL cells,hexokinase [3],unchanged
